The values below are quoted from earlier work in patent US20140256766A1, “TRANSMUCOSAL DRUG DELIVERY SYSTEM” (priority 2013, published 2014).

The conditions of data set [1]: pH 6.8.
The conditions of data set [2]: smoking a cigarette (WO 03/055486 A1).

On to `CN1CCCC1c1cccnc1` (centres unmarked) [nicotine], for which the “nicotine in the free base form” value in data set [1] is “about 10%”. For the same molecule, in data set [2], the “time to peak plasma nicotine levels” value was “about 10 minutes”.
